Test results from patent publication US20250353891A1 (MEDIMMUNE LIMITED, priority 2022, published 2025).
pEC50: −log10 of the molar value. Starred links: 1 amine or outer side, 2 acyl side, 3 side chain; linkers in the order of their positions; H or OH if unused. Non-standard residues stand in square brackets, D forms with d. Residues, ends and D or L forms follow the SMILES beside them. Groups on a side chain read outwards from the residue. *: point of attachment. C20 diacid = O=C(O)CCCCCCCCCCCCCCCCCCC(=O)*; C18 diacid = O=C(O)CCCCCCCCCCCCCCCCC(=O)*; γGlu = O=C(O)[C@H](CCC(=O)[*:2])N[*:1]; αMeF = C[C@](N)(Cc1ccccc1)C(=O)O; AEEA = NCCOCCOCC(=O)O; Aib = CC(C)(N)C(=O)O

Legend:
[1] = biological target: human GLP-1 receptor (hGLP-1R) (Homo sapiens, UniProt P43220); test: cAMP production (HTRF) in CHO cells expressing hGLP-1R; format: cell-based; design: expressed in transfected cells; conditions: for pEC50: Table 6, peptides modified at position 17, cAMP in CHO hGLP-1R cells, geometric mean, read-out: hGLP-1R EC50; for % Relative Potency Ratio: Table 6, % GLP-1R activity relative to GLP-1 / % GlucR activity relative to glucagon
How it was run: (§1)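 Read-out: HTRF cAMP (anti-cAMP cryptate donor, cAMP-d2 acceptor in conjugate/lysis buffer), converted to % Delta F and fitted by 4-parameter logistic for EC50. Cell densities were 1×10^5 cells/mL (hGLP-1R) or 2×10^5 cells/mL (hGCGR). Stimulation lasted 30 min at room temperature.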

[2] = biological target: human glucagon receptor (hGCGR) (Homo sapiens, UniProt P47871); test: cAMP production (HTRF) in CHO cells expressing hGCGR; format: cell-based; design: expressed in transfected cells; conditions: Table 6, peptides modified at position 17; cAMP in CHO hGCGR cells; geometric mean; read-out: hGluc-R EC50
How it was run: as §1

Sequence of human glucagon receptor (hGCGR) (P47871 26-477): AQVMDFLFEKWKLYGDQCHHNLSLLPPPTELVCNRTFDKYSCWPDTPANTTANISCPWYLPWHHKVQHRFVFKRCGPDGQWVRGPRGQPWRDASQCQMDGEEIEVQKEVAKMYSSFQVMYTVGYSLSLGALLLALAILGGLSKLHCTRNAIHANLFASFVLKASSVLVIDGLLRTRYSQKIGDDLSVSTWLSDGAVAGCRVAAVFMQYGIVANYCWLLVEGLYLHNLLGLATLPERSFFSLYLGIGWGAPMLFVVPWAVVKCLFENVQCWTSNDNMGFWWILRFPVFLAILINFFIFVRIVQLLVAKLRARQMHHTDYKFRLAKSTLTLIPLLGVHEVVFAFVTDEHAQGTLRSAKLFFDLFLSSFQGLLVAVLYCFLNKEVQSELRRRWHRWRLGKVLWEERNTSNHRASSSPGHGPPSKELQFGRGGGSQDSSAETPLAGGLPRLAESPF
Sequence of human GLP-1 receptor (hGLP-1R) (P43220 24-463): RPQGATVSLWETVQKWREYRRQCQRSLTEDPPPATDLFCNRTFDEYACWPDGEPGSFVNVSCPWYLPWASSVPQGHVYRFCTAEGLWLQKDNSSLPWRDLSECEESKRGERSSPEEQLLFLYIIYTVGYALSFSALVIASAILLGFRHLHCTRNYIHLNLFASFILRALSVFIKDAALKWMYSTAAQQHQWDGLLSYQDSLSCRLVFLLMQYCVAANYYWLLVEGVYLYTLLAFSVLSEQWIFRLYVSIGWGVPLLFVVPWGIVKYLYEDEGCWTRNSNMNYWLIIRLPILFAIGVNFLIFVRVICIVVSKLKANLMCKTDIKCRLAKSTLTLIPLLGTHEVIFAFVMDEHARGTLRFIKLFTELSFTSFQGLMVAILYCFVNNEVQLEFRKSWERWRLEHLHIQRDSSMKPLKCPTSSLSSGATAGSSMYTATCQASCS

| Compound | pEC50 [1] | % Relative Potency Ratio [1] | pEC50 [2] |
| --- | --- | --- | --- |
| CC(C)C[C@H](NC(=O)[C@H](Cc1c[nH]c2ccccc12)NC(=O)[C@H](CCCNC(=N)N)NC(=O)[C@@H](NC(=O)[C@H](Cc1ccccc1)NC(=O)[C@H](CC(=O)O)NC(=O)[C@H](CCC(N)=O)NC(=O)[C@H](C)NC(=O)[C@H](CCCNC(=N)N)NC(=O)[C@H](CCCCNC(=O)COCCOCCNC(=O)COCCOCCNC(=O)CC[C@H](NC(=O)CCCCCCCCCCCCCCCCCCC(=O)O)C(=O)O)NC(=O)[C@H](CCCNC(=N)N)NC(=O)[C@H](CC(=O)O)NC(=O)[C@H](CC(C)C)NC(=O)[C@](C)(Cc1ccccc1)NC(=O)[C@H](CCCCN)NC(=O)[C@H](CO)NC(=O)[C@@H](NC(=O)[C@H](CC(=O)O)NC(=O)[C@H](CO)NC(=O)[C@@H](NC(=O)[C@H](Cc1ccccc1)NC(=O)[C@@H](NC(=O)CNC(=O)[C@H](CCC(N)=O)NC(=O)C(C)(C)NC(=O)[C@@H](N)Cc1c[nH]cn1)[C@@H](C)O)[C@@H](C)O)C(C)C)C(C)C)C(=O)N[C@H](C(=O)NC(C)(C)C(=O)N[C@@H](CCC(=O)O)C(N)=O)C(C)C [Peptide 437] (H-H[Aib]QGTFTSDVSK[αMeF]LDRK([AEEA-AEEA-γGlu-C20 diacid])RAQDFVRWLV[Aib]E-NH2) | 10.57 | 7.1 | 10.01 |
| CC(C)C[C@H](NC(=O)[C@H](Cc1c[nH]c2ccccc12)NC(=O)[C@H](CCCNC(=N)N)NC(=O)[C@@H](NC(=O)[C@H](Cc1ccccc1)NC(=O)[C@H](CC(=O)O)NC(=O)[C@H](CCC(N)=O)NC(=O)[C@H](C)NC(=O)[C@H](CCCNC(=N)N)NC(=O)[C@H](CCCCNC(=O)COCCOCCNC(=O)COCCOCCNC(=O)CC[C@H](NC(=O)CCCCCCCCCCCCCCCCC(=O)O)C(=O)O)NC(=O)[C@H](CCCCN)NC(=O)[C@H](CC(=O)O)NC(=O)[C@H](CC(C)C)NC(=O)[C@](C)(Cc1ccccc1)NC(=O)[C@H](CCCCN)NC(=O)[C@H](CO)NC(=O)[C@@H](NC(=O)[C@H](CC(=O)O)NC(=O)[C@H](CO)NC(=O)[C@@H](NC(=O)[C@H](Cc1ccccc1)NC(=O)[C@@H](NC(=O)CNC(=O)[C@H](CCC(N)=O)NC(=O)C(C)(C)NC(=O)[C@@H](N)Cc1c[nH]cn1)[C@@H](C)O)[C@@H](C)O)C(C)C)C(C)C)C(=O)N[C@@H](CCC(=O)O)C(=O)N[C@@H](C)C(=O)NC(C)(C)C(=O)NCC(N)=O [Peptide 438] (H-H[Aib]QGTFTSDVSK[αMeF]LDKK([AEEA-AEEA-γGlu-C18 diacid])RAQDFVRWLEA[Aib]G-NH2; N-terminus assumed) | 10.75 | 7.6 | 10.16 |
| CC(C)C[C@H](NC(=O)[C@H](Cc1c[nH]c2ccccc12)NC(=O)[C@H](CCCNC(=N)N)NC(=O)[C@@H](NC(=O)[C@H](Cc1ccccc1)NC(=O)[C@H](CC(=O)O)NC(=O)[C@H](CCC(N)=O)NC(=O)[C@H](C)NC(=O)[C@H](CCCNC(=N)N)NC(=O)[C@H](CCCCNC(=O)COCCOCCNC(=O)COCCOCCNC(=O)CC[C@H](NC(=O)CCCCCCCCCCCCCCCCC(=O)O)C(=O)O)NC(=O)[C@H](CCCNC(=N)N)NC(=O)[C@H](CC(=O)O)NC(=O)[C@H](CC(C)C)NC(=O)[C@](C)(Cc1ccccc1)NC(=O)[C@H](CCCCN)NC(=O)[C@H](CO)NC(=O)[C@@H](NC(=O)[C@H](CC(=O)O)NC(=O)[C@H](CO)NC(=O)[C@@H](NC(=O)[C@H](Cc1ccccc1)NC(=O)[C@@H](NC(=O)CNC(=O)[C@H](CCC(N)=O)NC(=O)C(C)(C)NC(=O)[C@@H](N)Cc1c[nH]cn1)[C@@H](C)O)[C@@H](C)O)C(C)C)C(C)C)C(=O)N[C@@H](CC(C)C)C(=O)NC(C)(C)C(=O)N[C@@H](CCC(=O)O)C(N)=O [Peptide 439] (H-H[Aib]QGTFTSDVSK[αMeF]LDRK([AEEA-AEEA-γGlu-C18 diacid])RAQDFVRWLL[Aib]E-NH2; N-terminus assumed) | 10.51 | 3.7 | 10.24 |

Other lines, results leading:

| pEC50 [1] | % Relative Potency Ratio [1] | pEC50 [2] | Compound |
| --- | --- | --- | --- |
| 9.81 | 1.0 | 10.09 | CC(C)C[C@H](NC(=O)[C@H](Cc1c[nH]c2ccccc12)NC(=O)[C@H](CCCNC(=N)N)NC(=O)[C@@H](NC(=O)[C@H](Cc1ccccc1)NC(=O)[C@H](CC(=O)O)NC(=O)[C@H](CCCNC(=N)N)NC(=O)[C@H](C)NC(=O)[C@H](CCCNC(=N)N)NC(=O)[C@H](CCCCNC(=O)COCCOCCNC(=O)COCCOCCNC(=O)CC[C@H](NC(=O)CCCCCCCCCCCCCCCCCCC(=O)O)C(=O)O)NC(=O)[C@H](CCCCN)NC(=O)[C@H](CC(=O)O)NC(=O)[C@H](CC(C)C)NC(=O)[C@](C)(Cc1ccccc1)NC(=O)[C@H](CCCCN)NC(=O)[C@H](CO)NC(=O)[C@@H](NC(=O)[C@H](CC(=O)O)NC(=O)[C@H](CO)NC(=O)[C@@H](NC(=O)[C@H](Cc1ccccc1)NC(=O)[C@@H](NC(=O)CNC(=O)[C@H](CCC(N)=O)NC(=O)C(C)(C)NC(=O)[C@@H](N)Cc1c[nH]cn1)[C@@H](C)O)[C@@H](C)O)C(C)C)C(C)C)C(=O)N[C@@H](CC(C)C)C(=O)NC(C)(C)C(=O)N[C@@H](CCC(=O)O)C(=O)O [Peptide 440] (H-H[Aib]QGTFTSDVSK[αMeF]LDKK([AEEA-AEEA-γGlu-C20 diacid])RARDFVRWLL[Aib]E-OH; N-terminus assumed) |
| 10.20 | 2.3 | 10.14 | CC(C)C[C@H](NC(=O)[C@H](Cc1c[nH]c2ccccc12)NC(=O)[C@H](CCCNC(=N)N)NC(=O)[C@@H](NC(=O)[C@H](Cc1ccccc1)NC(=O)[C@H](CC(=O)O)NC(=O)[C@H](CCC(N)=O)NC(=O)[C@H](C)NC(=O)[C@H](CCCNC(=N)N)NC(=O)[C@H](CCCCNC(=O)COCCOCCNC(=O)COCCOCCNC(=O)CC[C@H](NC(=O)CCCCCCCCCCCCCCCCCCC(=O)O)C(=O)O)NC(=O)[C@H](CCCCN)NC(=O)[C@H](CC(=O)O)NC(=O)[C@H](CC(C)C)NC(=O)[C@](C)(Cc1ccccc1)NC(=O)[C@H](CCCCN)NC(=O)[C@H](CO)NC(=O)[C@@H](NC(=O)[C@H](CC(=O)O)NC(=O)[C@H](CO)NC(=O)[C@@H](NC(=O)[C@H](Cc1ccccc1)NC(=O)[C@@H](NC(=O)CNC(=O)[C@H](CCC(N)=O)NC(=O)C(C)(C)NC(=O)[C@@H](N)Cc1c[nH]cn1)[C@@H](C)O)[C@@H](C)O)C(C)C)C(C)C)C(=O)N[C@@H](CC(C)C)C(=O)NC(C)(C)C(=O)N[C@@H](CCC(=O)O)C(N)=O [Peptide 441] (H-H[Aib]QGTFTSDVSK[αMeF]LDKK([AEEA-AEEA-γGlu-C20 diacid])RAQDFVRWLL[Aib]E-NH2; N-terminus assumed) |
| 10.72 | 3.7 | 10.45 | CC(C)C[C@H](NC(=O)[C@H](Cc1c[nH]c2ccccc12)NC(=O)[C@H](CCCNC(=N)N)NC(=O)[C@@H](NC(=O)[C@H](Cc1ccccc1)NC(=O)[C@H](CC(=O)O)NC(=O)[C@H](CCC(N)=O)NC(=O)[C@H](C)NC(=O)[C@H](CCCNC(=N)N)NC(=O)[C@H](CCCCNC(=O)COCCOCCNC(=O)COCCOCCNC(=O)CC[C@H](NC(=O)CCCCCCCCCCCCCCCCC(=O)O)C(=O)O)NC(=O)[C@H](CCCCN)NC(=O)[C@H](CC(=O)O)NC(=O)[C@H](CC(C)C)NC(=O)[C@](C)(Cc1ccccc1)NC(=O)[C@H](CCCCN)NC(=O)[C@H](CO)NC(=O)[C@@H](NC(=O)[C@H](CC(=O)O)NC(=O)[C@H](CO)NC(=O)[C@@H](NC(=O)[C@H](Cc1ccccc1)NC(=O)[C@@H](NC(=O)CNC(=O)[C@H](CCC(N)=O)NC(=O)C(C)(C)NC(=O)[C@@H](N)Cc1c[nH]cn1)[C@@H](C)O)[C@@H](C)O)C(C)C)C(C)C)C(=O)N[C@@H](CC(C)C)C(=O)N[C@@H](CCC(=O)O)C(=O)NC(C)(C)C(=O)NCC(N)=O [Peptide 442] (H-H[Aib]QGTFTSDVSK[αMeF]LDKK([AEEA-AEEA-γGlu-C18 diacid])RAQDFVRWLLE[Aib]G-NH2; N-terminus assumed) |
| 10.69 | 2.2 | 10.65 | CC(C)C[C@H](NC(=O)[C@H](Cc1c[nH]c2ccccc12)NC(=O)[C@H](CCCNC(=N)N)NC(=O)[C@@H](NC(=O)[C@H](Cc1ccccc1)NC(=O)[C@H](CC(=O)O)NC(=O)[C@H](CCCNC(=N)N)NC(=O)[C@H](C)NC(=O)[C@H](CCCNC(=N)N)NC(=O)[C@H](CCCCNC(=O)COCCOCCNC(=O)COCCOCCNC(=O)CC[C@H](NC(=O)CCCCCCCCCCCCCCCCC(=O)O)C(=O)O)NC(=O)[C@H](CCCCN)NC(=O)[C@H](CC(=O)O)NC(=O)[C@H](CC(C)C)NC(=O)[C@](C)(Cc1ccccc1)NC(=O)[C@H](CCCCN)NC(=O)[C@H](CO)NC(=O)[C@@H](NC(=O)[C@H](CC(=O)O)NC(=O)[C@H](CO)NC(=O)[C@@H](NC(=O)[C@H](Cc1ccccc1)NC(=O)[C@@H](NC(=O)CNC(=O)[C@H](CCC(N)=O)NC(=O)C(C)(C)NC(=O)[C@@H](N)Cc1c[nH]cn1)[C@@H](C)O)[C@@H](C)O)C(C)C)C(C)C)C(=O)N[C@@H](CC(C)C)C(=O)NC(C)(C)C(=O)N[C@@H](CCC(=O)O)C(N)=O [Peptide 443] (H-H[Aib]QGTFTSDVSK[αMeF]LDKK([AEEA-AEEA-γGlu-C18 diacid])RARDFVRWLL[Aib]E-NH2; N-terminus assumed) |
